Experimental data published in PMC10033419, “Blocking NS3–NS4B interaction inhibits dengue virus in non-human primates” (Nature, 2023).

Key:
[1] = system: DENV-2 RL strain; assay: Survival study, lethal DENV challenge with 4G2 antibody; type: in vivo, AG129 mice
[2] = system: DENV-2 Asian I Thailand; type: cell-based; conditions: T108I in NS4B

COc1cc(N[C@H](C(=O)c2c[nH]c3ccc(OC(F)(F)F)cc23)c2ccc(Cl)cc2OC)cc(S(C)(=O)=O)c1 [JNJ-1802]
survival ([1]; 0.6–20 mg per kg per day, b.i.d., vehicle 0%): ≥ 80%
% Survival ([1]; 802R_0.3, BID, d p.i. 0): 100%
% Survival ([1]; 802R_0.3, BID, d p.i. 1): 100%
% Survival ([1]; 802R_0.3, BID, d p.i. 4): 100%
% Survival ([1]; 802R_0.3, BID, d p.i. 5): 100%
% Survival ([1]; 802R_0.3, BID, d p.i. 6): 100%
% Survival ([1]; 802R_0.3, BID, d p.i. 7): 100%
% Survival ([1]; 802R_0.3, BID, d p.i. 8): 100%
% Survival ([1]; 802R_0.3, BID, d p.i. 9): 100%
% Survival ([1]; 802R_0.3, BID, d p.i. 10): 100%
% Survival ([1]; 802R_0.3, BID, d p.i. 11): 100%
% Survival ([1]; 802R_0.3, BID, d p.i. 12): 100%
% Survival ([1]; 802R_0.3, BID, d p.i. 13): 100%
% Survival ([1]; 802R_0.3, BID, d p.i. 14): 100%
% Survival ([1]; 802R_0.3, BID, d p.i. 15): 100%
% Survival ([1]; 802R_0.3, BID, d p.i. 16): 100%
% Survival ([1]; 802R_0.3, BID, d p.i. 17): 90%
% Survival ([1]; 802R_0.3, BID, d p.i. 18): 90%
% Survival ([1]; 802R_0.3, BID, d p.i. 19): 90%
% Survival ([1]; 802R_0.3, BID, d p.i. 20): 90%
% Survival ([1]; 802R_0.3, BID, d p.i. 21): 90%
% Survival ([1]; 802R_0.3, BID, d p.i. 22): 90%
% Survival ([1]; 802R_0.3, BID, d p.i. 23): 90%
% Survival ([1]; 802R_0.3, BID, d p.i. 24): 90%
% Survival ([1]; 802R_0.3, BID, d p.i. 25 = end of study): 90%
% Survival ([1]; 802R_1, BID, d p.i. 0): 100%
% Survival ([1]; 802R_1, BID, d p.i. 1): 100%
% Survival ([1]; 802R_1, BID, d p.i. 2): 100%
% Survival ([1]; 802R_1, BID, d p.i. 4): 100%
% Survival ([1]; 802R_1, BID, d p.i. 5): 100%
% Survival ([1]; 802R_1, BID, d p.i. 6): 100%
% Survival ([1]; 802R_1, BID, d p.i. 7): 100%
% Survival ([1]; 802R_1, BID, d p.i. 8): 100%
% Survival ([1]; 802R_1, BID, d p.i. 9): 100%
% Survival ([1]; 802R_1, BID, d p.i. 10): 100%
% Survival ([1]; 802R_1, BID, d p.i. 11): 100%
% Survival ([1]; 802R_1, BID, d p.i. 12): 100%
% Survival ([1]; 802R_1, BID, d p.i. 13): 100%
% Survival ([1]; 802R_1, BID, d p.i. 14): 100%
% Survival ([1]; 802R_1, BID, d p.i. 15): 100%
% Survival ([1]; 802R_1, BID, d p.i. 16): 100%
% Survival ([1]; 802R_1, BID, d p.i. 17): 100%
% Survival ([1]; 802R_1, BID, d p.i. 18): 100%
% Survival ([1]; 802R_1, BID, d p.i. 19): 100%
% Survival ([1]; 802R_1, BID, d p.i. 20): 100%
% Survival ([1]; 802R_1, BID, d p.i. 21): 100%
% Survival ([1]; 802R_1, BID, d p.i. 22): 100%
% Survival ([1]; 802R_1, BID, d p.i. 23): 100%
% Survival ([1]; 802R_1, BID, d p.i. 24): 100%
% Survival ([1]; 802R_1, BID, d p.i. 25 = end of study): 100%
% Survival ([1]; 802R_3, BID, d p.i. 0): 100%
% Survival ([1]; 802R_3, BID, d p.i. 1): 100%
% Survival ([1]; 802R_3, BID, d p.i. 2): 100%
% Survival ([1]; 802R_3, BID, d p.i. 4): 100%
% Survival ([1]; 802R_3, BID, d p.i. 5): 100%
% Survival ([1]; 802R_3, BID, d p.i. 6): 100%
% Survival ([1]; 802R_3, BID, d p.i. 7): 100%
% Survival ([1]; 802R_3, BID, d p.i. 8): 100%
% Survival ([1]; 802R_3, BID, d p.i. 9): 100%
% Survival ([1]; 802R_3, BID, d p.i. 10): 100%
% Survival ([1]; 802R_3, BID, d p.i. 11): 100%
% Survival ([1]; 802R_3, BID, d p.i. 12): 100%
% Survival ([1]; 802R_3, BID, d p.i. 13): 100%
% Survival ([1]; 802R_3, BID, d p.i. 14): 100%
% Survival ([1]; 802R_3, BID, d p.i. 15): 100%
% Survival ([1]; 802R_3, BID, d p.i. 16): 100%
% Survival ([1]; 802R_3, BID, d p.i. 17): 100%
% Survival ([1]; 802R_3, BID, d p.i. 18): 100%
% Survival ([1]; 802R_3, BID, d p.i. 19): 100%
% Survival ([1]; 802R_3, BID, d p.i. 20): 100%
% Survival ([1]; 802R_3, BID, d p.i. 21): 100%
% Survival ([1]; 802R_3, BID, d p.i. 22): 90%
% Survival ([1]; 802R_3, BID, d p.i. 23): 90%
% Survival ([1]; 802R_3, BID, d p.i. 24): 80%
% Survival ([1]; 802R_3, BID, d p.i. 25 = end of study): 80%
% Survival ([1]; 802R_10, BID, d p.i. 0): 100%
% Survival ([1]; 802R_10, BID, d p.i. 1): 100%
% Survival ([1]; 802R_10, BID, d p.i. 2): 100%
% Survival ([1]; 802R_10, BID, d p.i. 4): 100%
% Survival ([1]; 802R_10, BID, d p.i. 5): 100%
% Survival ([1]; 802R_10, BID, d p.i. 6): 100%
% Survival ([1]; 802R_10, BID, d p.i. 7): 100%
% Survival ([1]; 802R_10, BID, d p.i. 8): 100%
% Survival ([1]; 802R_10, BID, d p.i. 9): 100%
% Survival ([1]; 802R_10, BID, d p.i. 10): 100%
% Survival ([1]; 802R_10, BID, d p.i. 11): 100%
% Survival ([1]; 802R_10, BID, d p.i. 12): 100%
% Survival ([1]; 802R_10, BID, d p.i. 13): 100%
% Survival ([1]; 802R_10, BID, d p.i. 14): 100%
% Survival ([1]; 802R_10, BID, d p.i. 15): 80%
% Survival ([1]; 802R_10, BID, d p.i. 16): 80%
% Survival ([1]; 802R_10, BID, d p.i. 17): 80%
% Survival ([1]; 802R_10, BID, d p.i. 18): 80%
% Survival ([1]; 802R_10, BID, d p.i. 19): 80%
% Survival ([1]; 802R_10, BID, d p.i. 20): 80%
% Survival ([1]; 802R_10, BID, d p.i. 21): 80%
% Survival ([1]; 802R_10, BID, d p.i. 22): 80%
% Survival ([1]; 802R_10, BID, d p.i. 23): 80%
% Survival ([1]; 802R_10, BID, d p.i. 24): 80%
% Survival ([1]; 802R_10, BID, d p.i. 25 = end of study): 80%
EC50 [2]: 1.4 ± 0.34 nM
EC90 [2]: 2.78 ± 0.037 nM
